{
  "source": "patent US11174299B2",
  "about": "“Peptides and compositions for prevention of cell adhesion and methods of using same” (D[…]., priority 2008, dated 2021)",
  "key": {"[1]": {"system": "Pseudomonas aeruginosa", "experiment": "Growth test on Pseudomonas aeruginosa", "type": "cell-based", "conditions": "FIG. 2, FIG. 4"}, "[2]": {"system": "Pseudomonas aeruginosa", "experiment": "Prevention of Pseudomonas aeruginosa attachment by synthetic peptides", "type": "cell-based", "conditions": "for anti adherence activity on P. aeruginosa: FIG. 3", "procedure": "The synthetic peptide grZ28C [[…] (SEQ ID NO: 1)] gave approximately 50% prevention of Pseudomonas aeruginosa attachment at three concentrations: 50, 5 and 0.5 μg/ml (FIG. 1). The activity was similar to that of the AbacZ17C, peptide based on the anemone cytotoxin active region. Abac10C, which was used as a negative control peptide, was synthesized based on the N-terminal sequence of Abac17C, without the active residue [[…] (SEQ ID NO: 27)].\nFor peptide grZ35 cyc, the peptide sequence […] (SEQ ID NO: 6) which represents the extracellular region, residue 259-292, was synthesized with two Cysteines in the C and N termini and S—S bridged. For peptide grZ28C, the peptide sequence […] (SEQ ID NO: 3) which represents the extracellular region, residue 259-284, was synthesized with two Cysteines in C and N termini."}, "[3]": {"system": "Murine L929 cells", "experiment": "In vitro cytotoxicity of immobilised contact lenses (ISO 10993-5, Trypan Blue)", "type": "cell-based", "conditions": "peptide coated contact lenses (0.1, 1.0, 10.0 μM) on murine L929 monolayer, 24 h", "procedure": "Testing in vitro cytotoxicity of APi1775 (gr14Z-BBC2) immobilised contact lenses was performed according to ISO standard 10993-5 standardized procedures. Murine L929 cells were grown to >80% confluency in 24 well tissue culture plates (CELESTAR®, Greiner bio-one, Frickenhausen, Germany) with DMEM cell culture media. The medium was aspirated and replaced with adequate fresh growth medium every 2-3 days. All the test and control contact lenses were washed with sterile PBS prior to the start of the study and then directly placed on the cell monolayer for examination of in vitro cytotoxicity. During this any cytotoxicity of the lenses will disrupt the normal functions of cells beneath and perhaps adjacent to the samples. The samples were incubated overnight at 37° C. with 5% CO2. After 24 hours, cells were stained with vital stain (Trypan Blue; Sigma-Aldrich, St Louis, Mo., USA) and cytotoxicity was assessed using bright field and phase-contrast microscopy. Cytotoxic responses are graded according to a standard key, which quantifies the viability and zonal extent. The samples were used in triplicates."}, "[4]": {"experiment": "Dissolution of peptide in Phosphate Buffer Saline (visual inspection)", "type": "physicochemical"}, "[5]": {"system": "P. aeruginosa strong biofilm producer strain 142", "experiment": "Bacterial adhesion assay on contact lenses, P. aeruginosa strong biofilm producer strain 142", "type": "cell-based, Pseudomonas aeruginosa", "conditions": "PBS (No-TLF)", "procedure": "(§1) The peptide APi1775 (gr14Z-BBC2) according to SEQ ID NO: 28 was immobilized onto Etafilcon A™ (Johnson & Johnson Vision Care Inc., Jacksonville, Fla., USA; Base curve: 8.7 mm, Diameter: 14.0 mm) contact lenses. […] The coating (covalently bonding the peptide to the surface of the contact lenses) procedure was performed by activating the surface of the contact lenses with carboxyl-reactive crosslinker reactive groups EDC (1-ethyl-3-(-3-dimethylaminopropyl) carbodiimide hydrochloride, MW 191.70) followed by incubation with APi1775 (gr14Z-BBC2) at 0.1 μM 1.0 μM and 10 μM peptide concentration. Peptide grZ14s-nyCyc-3PEG-Pal soaked (1 μM) contact lenses were used as positive control, this peptide is used for non-covalent coating of contact lenses.\n(§2) Antimicrobial activity was determined against P. aeruginosa strain 6294 (isolated from a case of microbial keratitis), P. aeruginosa strong biofilm produces strain 142 (isolated from a case of microbial keratitis) and S. aureus strain 31 (isolated from a case of contact lens-induced peripheral ulcer) following established methods. Briefly, P. aeruginosa and S. aureus were grown overnight in tryptone soya broth (TSB; Oxoid, Basingstoke, UK) and re-suspended in 1/10 TSB and PBS respectively to an OD660 nm of 0.1 (1.0×10^8 colony-forming unit (CFU) per ml). The bacterial cell suspensions were then diluted to […] for adhesion assays. Non-coated control, process control, APi1775 peptide coated and grZ14s-nvCyc-3PEG-Pal soaked lenses were washed in PBS and transferred to 1 ml of bacterial suspension in 24 well tissue culture plates (CELESTAR®, Greiner bio-one, Frickenhausen, Germany), and incubated at 37° C. for 18 hours with shaking (120 rpm). For P. aeruginosa strain 6294, the assay was performed with PBS and tear Like Fluid (TFL), for P. aeruginosa strain 142 the assay was performed with PBS and for S. aureus the assay was performed using 1/10 TSB. Lenses were washed three times following incubation with PBS to remove loosely adhered bacteria, then stirred in a vortex mixer rapidly in 2 ml of fresh PBS containing a small magnetic stirring bar. The resulting slurry was serially diluted and 20 μl was added onto nutrient agar (TSA; Oxoid, Basingstoke, UK) for recovery of cells. After incubation at 37° C. for 18 hours, viable microorganisms were enumerated as CFU for each lens. Measurements were performed in triplicates for at least three occasions.\n(§3) Data were analyzed using Microsoft Office Excel and Statistical Package for the Social Sciences software version 23.0 (SPSS, Inc., Chicago, Ill.). The bacterial adhesion data were log10 (x+1) transformed prior to analysis where x is the adherent bacteria CFU/lens. Bacterial adhesion, contact lens surface elemental composition, and contact lens parameters were analysed using an independent 2-sample t-test, and expressed with descriptive statistics. Statistical significance was set at 5%."}, "[6]": {"system": "P. aeruginosa strain 6294", "experiment": "Bacterial adhesion assay on contact lenses, P. aeruginosa strain 6294", "type": "cell-based, Pseudomonas aeruginosa", "conditions": "for log inhibition of P. aeruginosa 6294 adhesion: 18 hours; for percentage of inhibition of P. aeruginosa 6294 adhesion: TLF", "procedure": "as §1, §2, §3"}, "[7]": {"conditions": "lens treated with 0.1 μM peptide"}, "[8]": {"conditions": "lens treated with 1.0 μM peptide"}, "[9]": {"conditions": "lens treated with 10.0 μM peptide"}, "[10]": {"conditions": "lens coated with 0.1 μM peptide, PBS"}, "[11]": {"conditions": "lens coated with 1.0 μM peptide, PBS"}, "[12]": {"conditions": "lens coated with 10.0 μM peptide, PBS"}},
  "data": [
    {"sequence": "CSFSQNKSVHSFDYDWYNVSDQADLKNC (SEQ ID NO: 1) [grZ28C]", "values": [
      {"measurement": "effect on P. aeruginosa growth", "setting": "[1]", "result": "not inhibited"},
      {"measurement": "anti adherence activity on P. aeruginosa", "setting": "[2]", "result": "anti adherence activity"},
      {"measurement": "prevention of Pseudomonas aeruginosa attachment", "setting": "[2]; at three concentrations: 50, 5 and 0.5 μg/ml (FIG. 1)", "result": "approximately 50%"}
    ]},
    {"sequence": "SFSQNKSVHSFDYDWYNVSDQADLKNQLGDAGYV (SEQ ID NO: 6) [grZ35 cyc]", "values": [
      {"measurement": "effect on P. aeruginosa growth", "setting": "[1]", "result": "not inhibited"},
      {"measurement": "anti adherence activity on P. aeruginosa", "setting": "[2]", "result": "anti adherence activity"}
    ]},
    {"sequence": "SVHSFDYDWYNV (SEQ ID NO: 28) (immobilized on Etafilcon A contact lens) [APi1775]", "values": [
      {"measurement": "cytotoxicity to mammalian cells in vitro", "setting": "[3]", "result": "not cytotoxic"},
      {"measurement": "dissolution in Phosphate Buffer Saline", "setting": "[4]; 0.1 μM, 1.0 μM concentration", "result": "completely dissolved"},
      {"measurement": "dissolution in Phosphate Buffer Saline", "setting": "[4]; 10.0 μM, rotary shaker at 37° C. overnight, visual inspection", "result": "completely dissolved"},
      {"measurement": "inhibition of bacterial adhesion, strain 142", "setting": "[5]; [7]", "result": 44.73, "unit": "%"},
      {"measurement": "log inhibition of P. aeruginosa strain 142 adhesion", "setting": "[5]; [7]", "result": 0.26, "unit": "log"},
      {"measurement": "inhibition of bacterial adhesion, strain 142", "setting": "[5]; [8]", "result": 43.62, "unit": "%"},
      {"measurement": "log inhibition of P. aeruginosa strain 142 adhesion", "setting": "[5]; [8]", "result": 0.25, "unit": "log"},
      {"measurement": "inhibition of bacterial adhesion, strain 142", "setting": "[5]; [9]", "result": 77.80, "unit": "%"},
      {"measurement": "log inhibition of P. aeruginosa strain 142 adhesion", "setting": "[5]; [9]", "result": 0.65, "unit": "log"},
      {"measurement": "percentage inhibition of P. aeruginosa 6294 adhesion", "setting": "[6]; [10]", "result": 77.1, "unit": "%"},
      {"measurement": "log inhibition of P. aeruginosa 6294 adhesion", "setting": "[6]; [10]", "result": 0.79, "unit": "log"},
      {"measurement": "percentage inhibition of P. aeruginosa 6294 adhesion", "setting": "[6]; [11]", "result": 77.5, "unit": "%"},
      {"measurement": "log inhibition of P. aeruginosa 6294 adhesion", "setting": "[6]; [11]", "result": 0.83, "unit": "log"},
      {"measurement": "percentage inhibition of P. aeruginosa 6294 adhesion", "setting": "[6]; [12]", "result": 47.7, "unit": "%"},
      {"measurement": "log inhibition of P. aeruginosa 6294 adhesion", "setting": "[6]; [12]", "result": 0.29, "unit": "log"},
      {"measurement": "percentage of inhibition of P. aeruginosa 6294 adhesion", "setting": "[6]; [7]", "result": 31.76, "unit": "%"},
      {"measurement": "log inhibition of P. aeruginosa 6294 adhesion", "setting": "[6]; lens treated with 0.1 μM peptide, Tear Like Fluid (TLF)", "result": 0.17, "unit": "log"},
      {"measurement": "percentage of inhibition of P. aeruginosa 6294 adhesion", "setting": "[6]; [8]", "result": 80.40, "unit": "%"},
      {"measurement": "log inhibition of P. aeruginosa 6294 adhesion", "setting": "[6]; lens treated with 1.0 μM peptide, Tear Like Fluid (TLF)", "result": 0.71, "unit": "log"},
      {"measurement": "percentage of inhibition of P. aeruginosa 6294 adhesion", "setting": "[6]; [9]", "result": 96.64, "unit": "%"},
      {"measurement": "log inhibition of P. aeruginosa 6294 adhesion", "setting": "[6]; lens treated with 10.0 μM peptide, Tear Like Fluid (TLF)", "result": 1.47, "unit": "log"}
    ]}
  ]
}
